Patent US20110160223A1, “NMDA Receptor Antagonists for the Treatment of Neuropsychiatric Disorders” (priority 2008, published 2011)
Where two headings read alike, the source gives them in different places.

Biological target: NMDA receptor (NR1 + NR2 subunits) (Rattus norvegicus, UniProt P35439+Q00960)
Test: Two electrode voltage clamp recording from Xenopus laevis oocytes (pH dependence of NMDA antagonism)
Type: cell-based
Procedure: cRNA was synthesized from linearized template cDNA for rat glutamate receptor subunits according to manufacturer specifications (Ambion). Quality of synthesized cRNA was assessed by gel electrophoresis, and quantity was estimated by spectroscopy and gel electrophoresis. Stage V and VI oocytes were surgically removed from the ovaries of large, well-fed and healthy Xenopus laevis anesthetized with 3-amino-benzoic acid ethyl ester (3 gm/l) as previously described. Clusters of isolated oocytes were incubated with 292 U/ml Worthington (Freehold, N.J.) type IV collagenase or 1.3 mg/ml collagenase (Life Technologies, Gaithersburg, Md.; 17018-029) for 2 hr in Ca^2+-free solution comprised of (in mM) 115 NaCl, 2.5 KCl, and 10 HEPES, pH 7.5, with slow agitation to remove the follicular cell layer. Oocytes were then washed extensively in the same solution supplemented with 1.8 mM CaCl2 and maintained in Barth's solution comprised of (in mM): 88 NaCl, 1 KCl, 2.4 NaHCO3, 10 HEPES, 0.82 MgSO4, 0.33 Ca(NO3)2, and 0.91 CaCl2 and supplemented with 100 μg/ml gentamycin, 10 μg/ml streptomycin, and 10 μg/ml penicillin. Oocytes were manually defolliculated and injected within 24 hrs of isolation with 3-5 ng of NR1 subunit cRNA and 7-10 ng of NR2 cRNA subunit in a 50 nl volume, or 5-10 ng of AMPA or kainate receptor cRNAs in a 50 nl volume, and incubated in Barth's solution at 18° C. for 1-7 d. Glass injection pipettes had tip sizes ranging from 10-20 microns, and were backfilled with mineral oil.
Two electrode voltage-clamp recordings were made 2-7 days post-injection as previously described. Oocytes were placed in a dual-track plexiglass recording chamber with a single perfusion line that splits in a Y-configuration to perfuse two oocytes. Dual recordings were made at room temperature (23° C.) using two Warner OC725B two-electrode voltage clamp amplifiers, arranged as recommended by the manufacturer. Glass microelectrodes (1-10 Megaohms) were filled with 300 mM KCl (voltage electrode) or 3 M KCl (current electrode). The bath clamps communicated across silver chloride wires placed into each side of the recording chamber, both of which were assumed to be at a reference potential of 0 mV. Oocytes were perfused with a solution comprised of (in mM) 90 NaCl, 1 KCl, 10 HEPES, and 0.5 BaCl2; pH was adjusted by addition of 1-3 M NaOH of HCl. Oocytes were recorded under voltage clamp at −40 mV. Final concentrations for control application of glutamate (50 μM) plus glycine (30 μM) were achieved by adding appropriate volumes from 100 and 30 mM stock solutions, respectively. In addition, 10 μM final EDTA was obtained by adding a 1:1000 dilution of 10 mM EDTA, in order to chelate contaminant divalent ions such as Zn^2+. Concentration-response curves for experimental compounds were obtained by applying in successive fashion maximal glutamate/glycine, followed by glutamate/glycine plus variable concentrations of experimental compounds. Dose response curves consisting of 4 to 8 concentrations were obtained in this manner. The baseline leak current at −40 mV was measured before and after recording, and the full recording linearly corrected for any change in leak current. Oocytes with glutamate-evoked responses smaller than 50 nA were not included in the analysis. The level of inhibition by applied experimental compounds was expressed as a percent of the initial glutamate response, and averaged together across oocytes from a single frog. Each experiment consisted of recordings from 3 to 10 oocytes obtained from a single frog. Results from 3-6 experiments were pooled, and the average percent responses at antagonist concentrations were fitted by the equation,
Percent Response=(100−minimum)/(1+([conc]/IC50)^nH)+minimum […]

[1] = pH 6.9, Table 17, read-out: IC50 at pH 6.9
[2] = pH 7.6, Table 17, read-out: IC50 at pH 7.6
[3] = pH 6.9, Table 18, read-out: IC50 at pH 6.9
[4] = pH 7.6, Table 18, read-out: IC50 at pH 7.6
[5] = pH 6.9, Table 19, read-out: IC50 at pH 6.9
[6] = pH 7.6, Table 19, read-out: IC50 at pH 7.6

Chain of NMDA receptor (NR1 + NR2 subunits) (Q00960 27-1482, other chains not shown): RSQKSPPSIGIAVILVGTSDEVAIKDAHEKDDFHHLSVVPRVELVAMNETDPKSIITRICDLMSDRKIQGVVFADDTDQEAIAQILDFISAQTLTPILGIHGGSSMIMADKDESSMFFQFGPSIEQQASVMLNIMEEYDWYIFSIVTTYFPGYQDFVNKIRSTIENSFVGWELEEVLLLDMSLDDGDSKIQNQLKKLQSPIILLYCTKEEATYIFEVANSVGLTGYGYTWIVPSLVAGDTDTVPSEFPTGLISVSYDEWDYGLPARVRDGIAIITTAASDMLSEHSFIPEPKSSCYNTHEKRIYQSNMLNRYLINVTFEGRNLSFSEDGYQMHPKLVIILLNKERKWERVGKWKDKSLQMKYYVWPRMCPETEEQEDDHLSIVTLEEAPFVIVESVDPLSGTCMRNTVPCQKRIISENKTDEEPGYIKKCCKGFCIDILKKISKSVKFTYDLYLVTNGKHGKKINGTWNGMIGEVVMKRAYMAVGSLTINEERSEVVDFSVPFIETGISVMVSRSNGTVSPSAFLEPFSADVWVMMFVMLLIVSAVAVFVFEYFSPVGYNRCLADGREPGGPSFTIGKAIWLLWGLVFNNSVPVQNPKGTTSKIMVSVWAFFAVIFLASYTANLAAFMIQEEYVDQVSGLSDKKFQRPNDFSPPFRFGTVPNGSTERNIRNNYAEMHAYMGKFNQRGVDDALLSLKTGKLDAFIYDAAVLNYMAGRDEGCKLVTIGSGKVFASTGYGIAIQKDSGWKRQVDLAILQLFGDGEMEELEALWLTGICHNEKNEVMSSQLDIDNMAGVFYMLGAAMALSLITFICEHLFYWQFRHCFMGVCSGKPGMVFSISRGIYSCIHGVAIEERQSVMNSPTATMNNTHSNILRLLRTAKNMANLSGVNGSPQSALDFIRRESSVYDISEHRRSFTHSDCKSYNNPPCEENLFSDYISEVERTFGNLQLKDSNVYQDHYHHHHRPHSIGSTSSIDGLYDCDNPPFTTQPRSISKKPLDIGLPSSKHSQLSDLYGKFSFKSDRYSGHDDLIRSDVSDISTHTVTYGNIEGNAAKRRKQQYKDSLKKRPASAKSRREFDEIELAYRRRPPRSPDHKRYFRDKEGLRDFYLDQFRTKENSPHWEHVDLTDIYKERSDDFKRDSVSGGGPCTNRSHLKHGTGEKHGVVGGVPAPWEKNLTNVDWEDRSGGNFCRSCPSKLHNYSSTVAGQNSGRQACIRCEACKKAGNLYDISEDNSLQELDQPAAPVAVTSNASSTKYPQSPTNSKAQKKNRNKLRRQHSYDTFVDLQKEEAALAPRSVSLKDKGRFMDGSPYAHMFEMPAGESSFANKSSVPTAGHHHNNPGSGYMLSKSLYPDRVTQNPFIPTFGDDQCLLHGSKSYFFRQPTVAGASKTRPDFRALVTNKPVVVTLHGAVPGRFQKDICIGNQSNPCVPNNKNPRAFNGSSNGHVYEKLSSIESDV

IC50 [1] | IC50 [2] | IC50 [5] | IC50 [6] | Compound | further results
31 nM | 557 nM |  |  | CS(=O)(=O)Nc1ccc(OCC(O)CN2CCN(c3ccc(F)c(F)c3)CC2)cc1 (stereo not drawn) | 
12 nM | 62 nM |  |  | CS(=O)(=O)Nc1ccc(OCC(O)CNCCNc2ccc(Cl)c(Cl)c2)cc1 (stereo not drawn) | 
296 nM | 1020 nM |  |  | CS(=O)(=O)Nc1ccc(OCC(O)CN2CCN(c3ccc(Cl)c(Cl)c3)CC2)cc1 (stereo not drawn) | 
32 nM | 270 nM |  |  | CS(=O)(=O)Nc1ccc(OCC(O)CN2CCN(c3ccc(Cl)cc3)CC2)cc1 (stereo not drawn) | 
213 nM | 1020 nM |  |  | CS(=O)(=O)Nc1ccc(OCC(O)CN2CCN(c3ccccc3)CC2)cc1 (stereo not drawn) | 
2400 nM | 28000 nM |  |  | CS(=O)(=O)Nc1ccc(OCC(O)CN2CCN(c3ccc(O)cc3)CC2)cc1 (stereo not drawn) | 
1810 nM | 12700 nM |  |  | CS(=O)(=O)Nc1ccc(OCC(O)CN2CCN(c3ccccn3)CC2)cc1 (stereo not drawn) | 
> 30000 nM | > 30000 nM |  |  | CS(=O)(=O)Nc1ccc(OCC(O)CN2CCN(c3ccncc3)CC2)cc1 (stereo not drawn) | 
55 nM | 133 nM |  |  | CS(=O)(=O)Nc1ccc(OCC(O)CNCCNc2ccccc2)cc1 (stereo not drawn) | 
108 nM | 199 nM |  |  | CS(=O)(=O)Nc1ccc(OCC(O)CNCCNc2ccc(F)c(F)c2)cc1 (stereo not drawn) | 
7 nM | 38 nM |  |  | CS(=O)(=O)Nc1ccc(OCC(O)CNC/C=C/c2ccc(Cl)c(Cl)c2)cc1 (stereo not drawn) | 
163 nM | 2580 nM |  |  | CCCCN(C/C=C/c1ccc(Cl)c(Cl)c1)CC(O)COc1ccc(NS(C)(=O)=O)cc1 (stereo not drawn) | 
38 nM | 71 nM |  |  | CS(=O)(=O)Nc1ccc(OCC(O)CNC/C=C/c2ccc(F)c(F)c2)cc1 (stereo not drawn) | 
 |  |  |  | O=c1[nH]c2ccc(OCC(O)CN3CCN(c4ccc(Cl)cc4)CC3)cc2o1 (stereo not drawn) | IC50 [3]: 79 nM; IC50 [4]: 726 nM
 |  |  |  | O=c1[nH]c2ccc(OC[C@H](O)CN3CCN(c4ccc(F)c(F)c4)CC3)cc2o1 | IC50 [3]: 145 nM; IC50 [4]: 1700 nM
 |  |  |  | O=c1[nH]c2ccc(OC[C@H](O)CN3CCN(c4ccc(Cl)c(Cl)c4)CC3)cc2o1 | IC50 [3]: 185 nM; IC50 [4]: 1500 nM
 |  |  |  | Cc1ccc(N2CCN(C[C@@H](O)COc3ccc4[nH]c(=O)oc4c3)CC2)cc1 | IC50 [3]: 72 nM; IC50 [4]: 644 nM
 |  |  |  | O=c1[nH]c2ccc(OCC(O)CNCCc3ccc(Cl)c(Cl)c3)cc2o1 (stereo not drawn) | IC50 [3]: 185 nM; IC50 [4]: 446 nM
 |  |  |  | O=c1[nH]c2ccc(OCC(O)CNCCNc3ccc(Cl)cc3)cc2o1 (stereo not drawn) | IC50 [3]: 25 nM; IC50 [4]: 97 nM
 |  | 80 nM | 814 nM | Oc1ccc(OC[C@H](O)CN2CCN(c3ccc(Cl)cc3)CC2)cc1 | 
 |  | 131 nM | 611 nM | Oc1ccc(OC[C@H](O)CN2CCN(c3ccc(Cl)c(Cl)c3)CC2)cc1 | 
 |  | 87 nM | 980 nM | Oc1ccc(OCC(O)CN2CCN(c3ccc(F)c(F)c3)CC2)cc1 (stereo not drawn) | 
 |  | 50 nM | 272 nM | Oc1ccc(OC[C@H](O)CN2CCN(c3ccc(F)c(F)c3)CC2)cc1 | 
 |  | 87 nM | 529 nM | Oc1ccc(OC[C@H](O)CN2CCN(c3ccc(F)cc3)CC2)cc1 | 
 |  | 1500 nM | 5790 nM | Cc1ccc(N2CCN(CC(O)COc3ccc(O)cc3)CC2)cc1C (stereo not drawn) | 
 |  | 70 nM | 260 nM | Cc1ccc(N2CCN(CC(O)COc3ccc(O)cc3)CC2)cc1 (stereo not drawn) | 
 |  | 460 nM | 4370 nM | N#Cc1ccc(N2CCN(C[C@@H](O)COc3ccc(O)cc3)CC2)cc1 | 
 |  | 73 nM | 204 nM | Oc1ccc(OCC(O)CN2CCN(c3ccc(Br)cc3)CC2)cc1 (stereo not drawn) | 
 |  | 576 nM | 4700 nM | Oc1ccc(OCC(O)CN2CCN(c3ccc(O)cc3)CC2)cc1 (stereo not drawn) | 
 |  | 562 nM | 9740 nM | COc1ccc(N2CCN(C[C@@H](O)COc3ccc(O)cc3)CC2)cc1 | 
